Reference: ChEMBL document CHEMBL5291721, “A preclinical secondary pharmacology resource illuminates target-adverse drug reaction associations of marketed drugs” (Nat Commun, 2023)

Key:
[1] = target: Neuronal acetylcholine receptor subunit alpha-4 (Homo sapiens, UniProt P43681)
[2] = target: Beta-1 adrenergic receptor (Homo sapiens, UniProt P08588); type: functional
[3] = target: T1, Type-1 angiotensin II receptor (Homo sapiens, UniProt P30556)
T1 sequence (P30556 whole entry): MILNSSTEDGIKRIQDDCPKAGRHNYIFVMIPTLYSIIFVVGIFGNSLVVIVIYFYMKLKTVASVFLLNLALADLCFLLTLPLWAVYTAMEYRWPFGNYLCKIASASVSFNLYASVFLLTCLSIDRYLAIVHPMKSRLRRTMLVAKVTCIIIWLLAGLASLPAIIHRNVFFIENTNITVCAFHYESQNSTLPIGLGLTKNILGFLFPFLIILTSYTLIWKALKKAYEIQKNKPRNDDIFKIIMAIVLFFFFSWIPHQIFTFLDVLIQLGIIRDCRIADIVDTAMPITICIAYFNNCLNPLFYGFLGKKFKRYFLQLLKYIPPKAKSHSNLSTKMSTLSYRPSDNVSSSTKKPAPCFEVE

[4] = target: T2, 5-hydroxytryptamine receptor 1A (Homo sapiens, UniProt P08908); type: functional, cell-based
T2 sequence (P08908 whole entry): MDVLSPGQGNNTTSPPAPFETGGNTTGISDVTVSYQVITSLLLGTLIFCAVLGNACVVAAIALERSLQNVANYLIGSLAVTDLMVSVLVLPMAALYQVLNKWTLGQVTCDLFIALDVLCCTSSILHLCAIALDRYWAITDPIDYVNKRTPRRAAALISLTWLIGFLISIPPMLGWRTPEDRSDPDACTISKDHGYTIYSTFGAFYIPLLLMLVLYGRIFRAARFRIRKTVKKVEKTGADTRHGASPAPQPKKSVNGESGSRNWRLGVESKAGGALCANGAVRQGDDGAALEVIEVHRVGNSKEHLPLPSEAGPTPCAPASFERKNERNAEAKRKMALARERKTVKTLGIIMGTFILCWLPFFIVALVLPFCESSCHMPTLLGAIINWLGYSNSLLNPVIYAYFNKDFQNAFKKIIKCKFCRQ

[5] = target: T3, 5-hydroxytryptamine receptor 2B (Homo sapiens, UniProt P41595); type: functional, cell-based
[6] = target: Gamma-aminobutyric acid receptor subunit alpha-1 (Rattus norvegicus, UniProt P62813)
Vasopressin V2 receptor = Vasopressin V2 receptor (Homo sapiens, UniProt P30518)
D(1A) dopamine receptor = D(1A) dopamine receptor (Homo sapiens, UniProt P21728); type: functional, cell-based
[7] = target: Beta-2 adrenergic receptor (Homo sapiens, UniProt P07550)
Motilin receptor = Motilin receptor (Homo sapiens, UniProt O43193)
[8] = target: T3, 5-hydroxytryptamine receptor 2B; type: functional, cell-based; remark: listed apart in the source
[9] = target: T4, Muscarinic acetylcholine receptor M2 (Homo sapiens, UniProt P08172); type: functional, cell-based
T4 sequence (P08172 whole entry): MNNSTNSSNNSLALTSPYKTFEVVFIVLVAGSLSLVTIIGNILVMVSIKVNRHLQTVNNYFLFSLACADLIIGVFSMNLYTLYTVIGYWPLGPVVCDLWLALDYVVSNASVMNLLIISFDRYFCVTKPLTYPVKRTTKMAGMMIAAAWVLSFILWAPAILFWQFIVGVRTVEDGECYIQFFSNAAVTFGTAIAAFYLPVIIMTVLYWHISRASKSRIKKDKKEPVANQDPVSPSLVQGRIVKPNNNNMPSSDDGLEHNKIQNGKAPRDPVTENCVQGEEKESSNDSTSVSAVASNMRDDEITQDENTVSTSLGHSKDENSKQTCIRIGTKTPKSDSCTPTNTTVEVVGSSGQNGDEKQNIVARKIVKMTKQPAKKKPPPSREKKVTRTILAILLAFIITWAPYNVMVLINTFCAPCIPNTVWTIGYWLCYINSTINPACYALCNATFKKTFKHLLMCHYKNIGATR

Melanocortin receptor 3 = Melanocortin receptor 3 (Homo sapiens, UniProt P41968)
Also: assay procedure not described here.

Chain of D(1A) dopamine receptor (P21728 whole entry): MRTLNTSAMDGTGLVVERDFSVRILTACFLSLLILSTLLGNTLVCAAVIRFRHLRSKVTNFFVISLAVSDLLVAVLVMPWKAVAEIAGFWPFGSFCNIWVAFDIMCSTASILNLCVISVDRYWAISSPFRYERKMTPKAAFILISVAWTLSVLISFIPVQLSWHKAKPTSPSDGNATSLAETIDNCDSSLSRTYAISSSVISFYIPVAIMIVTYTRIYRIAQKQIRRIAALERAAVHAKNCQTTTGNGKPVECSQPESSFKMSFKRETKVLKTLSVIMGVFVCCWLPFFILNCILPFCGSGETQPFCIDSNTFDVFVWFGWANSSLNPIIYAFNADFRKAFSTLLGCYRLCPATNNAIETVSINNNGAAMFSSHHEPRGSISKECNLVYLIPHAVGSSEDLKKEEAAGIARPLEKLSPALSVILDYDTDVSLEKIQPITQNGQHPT
Chain of Melanocortin receptor 3 (P41968 whole entry): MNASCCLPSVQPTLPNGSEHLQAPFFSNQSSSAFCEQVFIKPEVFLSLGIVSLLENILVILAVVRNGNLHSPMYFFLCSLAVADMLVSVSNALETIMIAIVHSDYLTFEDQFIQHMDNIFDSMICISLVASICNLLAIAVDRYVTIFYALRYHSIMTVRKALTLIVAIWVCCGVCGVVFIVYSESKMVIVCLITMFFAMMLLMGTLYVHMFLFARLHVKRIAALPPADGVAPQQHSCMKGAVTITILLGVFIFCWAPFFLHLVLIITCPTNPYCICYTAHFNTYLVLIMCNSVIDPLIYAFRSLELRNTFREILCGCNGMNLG
Chain of Neuronal acetylcholine receptor subunit alpha-4 (P43681 whole entry): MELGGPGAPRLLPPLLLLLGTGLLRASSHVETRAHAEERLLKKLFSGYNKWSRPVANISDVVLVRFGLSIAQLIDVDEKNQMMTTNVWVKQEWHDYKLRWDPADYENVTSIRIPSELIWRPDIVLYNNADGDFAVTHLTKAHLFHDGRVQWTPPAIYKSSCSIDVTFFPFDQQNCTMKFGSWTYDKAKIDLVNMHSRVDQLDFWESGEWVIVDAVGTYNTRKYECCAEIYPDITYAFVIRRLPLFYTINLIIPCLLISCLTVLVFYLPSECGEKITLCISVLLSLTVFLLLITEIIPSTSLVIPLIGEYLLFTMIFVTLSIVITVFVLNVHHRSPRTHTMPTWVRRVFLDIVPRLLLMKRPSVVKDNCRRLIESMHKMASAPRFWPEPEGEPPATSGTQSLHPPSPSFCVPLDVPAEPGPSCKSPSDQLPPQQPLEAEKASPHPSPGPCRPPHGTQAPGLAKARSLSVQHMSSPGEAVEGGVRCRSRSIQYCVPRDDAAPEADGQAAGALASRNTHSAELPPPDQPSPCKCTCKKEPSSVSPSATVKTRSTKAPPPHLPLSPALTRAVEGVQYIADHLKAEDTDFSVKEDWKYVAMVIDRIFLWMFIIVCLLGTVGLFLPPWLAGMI
Chain of Motilin receptor (O43193 whole entry): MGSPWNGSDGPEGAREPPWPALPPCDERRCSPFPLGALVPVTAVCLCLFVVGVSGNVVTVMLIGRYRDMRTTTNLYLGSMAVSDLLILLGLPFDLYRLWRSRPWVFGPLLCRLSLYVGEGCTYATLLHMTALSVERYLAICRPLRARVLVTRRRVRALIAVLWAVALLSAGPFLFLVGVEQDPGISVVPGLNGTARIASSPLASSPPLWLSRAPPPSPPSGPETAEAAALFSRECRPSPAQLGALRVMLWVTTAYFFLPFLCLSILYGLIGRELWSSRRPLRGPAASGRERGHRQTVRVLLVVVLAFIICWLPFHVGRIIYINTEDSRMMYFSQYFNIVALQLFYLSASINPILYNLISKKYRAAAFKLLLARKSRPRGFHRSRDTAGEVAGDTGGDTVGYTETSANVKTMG
Chain of Beta-2 adrenergic receptor (P07550 whole entry): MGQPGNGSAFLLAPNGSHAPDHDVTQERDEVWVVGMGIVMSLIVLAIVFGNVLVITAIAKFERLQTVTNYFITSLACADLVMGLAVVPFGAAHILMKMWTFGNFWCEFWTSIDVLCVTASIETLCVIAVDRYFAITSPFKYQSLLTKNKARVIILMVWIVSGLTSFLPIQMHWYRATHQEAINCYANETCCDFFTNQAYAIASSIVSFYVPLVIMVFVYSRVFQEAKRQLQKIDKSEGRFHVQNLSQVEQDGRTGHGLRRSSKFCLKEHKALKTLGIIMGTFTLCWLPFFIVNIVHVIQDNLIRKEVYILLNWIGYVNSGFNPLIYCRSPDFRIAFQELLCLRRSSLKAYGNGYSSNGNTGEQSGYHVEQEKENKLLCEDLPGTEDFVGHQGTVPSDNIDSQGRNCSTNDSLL
T3 sequence (P41595 whole entry): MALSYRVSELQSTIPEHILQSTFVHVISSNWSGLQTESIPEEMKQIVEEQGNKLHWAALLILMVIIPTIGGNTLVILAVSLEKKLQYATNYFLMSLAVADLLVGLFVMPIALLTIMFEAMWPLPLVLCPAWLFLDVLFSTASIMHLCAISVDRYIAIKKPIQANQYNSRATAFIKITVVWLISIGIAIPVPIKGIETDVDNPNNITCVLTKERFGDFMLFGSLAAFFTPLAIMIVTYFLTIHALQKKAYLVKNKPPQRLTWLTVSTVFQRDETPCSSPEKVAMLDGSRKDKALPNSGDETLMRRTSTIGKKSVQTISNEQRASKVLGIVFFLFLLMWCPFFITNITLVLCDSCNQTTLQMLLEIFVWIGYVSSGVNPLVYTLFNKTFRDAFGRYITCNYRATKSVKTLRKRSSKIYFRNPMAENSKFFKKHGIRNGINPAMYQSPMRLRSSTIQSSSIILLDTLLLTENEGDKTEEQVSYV
Chain of Gamma-aminobutyric acid receptor subunit alpha-1 (P62813 whole entry): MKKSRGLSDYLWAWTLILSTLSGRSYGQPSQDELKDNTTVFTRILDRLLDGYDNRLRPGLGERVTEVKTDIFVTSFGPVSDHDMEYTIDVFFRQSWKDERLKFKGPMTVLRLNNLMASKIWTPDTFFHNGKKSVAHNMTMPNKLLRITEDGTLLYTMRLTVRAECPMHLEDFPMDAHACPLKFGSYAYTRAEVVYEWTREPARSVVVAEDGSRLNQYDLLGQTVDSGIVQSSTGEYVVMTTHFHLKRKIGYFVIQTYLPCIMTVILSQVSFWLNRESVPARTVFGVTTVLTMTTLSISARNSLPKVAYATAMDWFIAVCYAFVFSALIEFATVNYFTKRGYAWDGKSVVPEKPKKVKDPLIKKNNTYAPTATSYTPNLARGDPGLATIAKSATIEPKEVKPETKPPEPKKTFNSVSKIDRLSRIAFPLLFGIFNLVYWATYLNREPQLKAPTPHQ
Chain of Beta-1 adrenergic receptor (P08588 whole entry): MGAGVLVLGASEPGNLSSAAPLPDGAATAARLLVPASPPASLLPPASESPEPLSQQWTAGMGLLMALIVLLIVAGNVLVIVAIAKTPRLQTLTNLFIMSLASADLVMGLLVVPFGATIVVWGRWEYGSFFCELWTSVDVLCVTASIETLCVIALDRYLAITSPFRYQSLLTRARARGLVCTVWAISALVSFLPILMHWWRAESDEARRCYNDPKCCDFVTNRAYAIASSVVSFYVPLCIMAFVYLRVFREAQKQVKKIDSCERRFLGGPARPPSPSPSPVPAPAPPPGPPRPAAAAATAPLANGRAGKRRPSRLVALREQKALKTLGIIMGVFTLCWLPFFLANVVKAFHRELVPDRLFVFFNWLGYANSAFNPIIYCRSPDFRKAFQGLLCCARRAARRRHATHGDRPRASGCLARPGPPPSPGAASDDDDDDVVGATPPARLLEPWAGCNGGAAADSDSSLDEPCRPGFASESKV
Chain of Vasopressin V2 receptor (P30518 whole entry): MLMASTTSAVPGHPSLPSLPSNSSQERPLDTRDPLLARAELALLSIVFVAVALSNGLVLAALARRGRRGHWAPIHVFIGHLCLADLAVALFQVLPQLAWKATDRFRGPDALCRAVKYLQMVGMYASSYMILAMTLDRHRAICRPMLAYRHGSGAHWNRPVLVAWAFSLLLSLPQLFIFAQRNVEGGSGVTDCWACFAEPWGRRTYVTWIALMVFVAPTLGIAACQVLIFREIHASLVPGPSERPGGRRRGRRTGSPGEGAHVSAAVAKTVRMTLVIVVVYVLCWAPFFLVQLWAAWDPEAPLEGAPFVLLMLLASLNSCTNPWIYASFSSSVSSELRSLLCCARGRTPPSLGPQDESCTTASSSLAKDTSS

## COc1ccc(CC2c3cc(OC)c(OC)cc3CC[N+]2(C)CCC(=O)OCCCCCOC(=O)CC[N+]2(C)CCc3cc(OC)c(OC)cc3C2Cc2ccc(OC)c(OC)c2)cc1OC (centres undefined)
[1]
  AC50: 3.63 µM
[2]
  AC50: > 30 µM
[3]
  AC50: > 30 µM
[4]
  AC50: > 30 µM
[5]
  AC50: > 30 µM
[6]
  AC50: > 30 µM
Vasopressin V2 receptor
  AC50: > 30 µM
D(1A) dopamine receptor
  AC50: > 30 µM
[7]
  AC50: > 30 µM
Motilin receptor
  AC50: > 30 µM
[8]
  AC50: > 30 µM
[9]
  AC50: > 30 µM
Melanocortin receptor 3
  AC50: > 30 µM

## CN1C[C@H](C(=O)N[C@]2(C)O[C@@]3(O)[C@@H]4CCCN4C(=O)[C@H](Cc4ccccc4)N3C2=O)C=C2c3cccc4[nH]cc(c34)C[C@H]21 [ERGOTAMINE]
[1]
  AC50: > 30 µM
[2]
  AC50: > 30 µM
[3]
  AC50: > 30 µM
[4]
  AC50: 0.22 µM
[5]
  AC50: > 10 µM
D(1A) dopamine receptor
  AC50: 0.59 µM
Motilin receptor
  AC50: > 30 µM
[9]
  AC50: > 30 µM
Melanocortin receptor 3
  AC50: > 30 µM

## CC(C)(C)NCC(O)c1cc(O)cc(O)c1 (centres undefined) [TERBUTALINE]
[1]
  AC50: > 30 µM
[3]
  AC50: > 30 µM
Vasopressin V2 receptor
  AC50: > 30 µM
Motilin receptor
  AC50: > 30 µM
Melanocortin receptor 3
  AC50: > 30 µM

## CCN(CC)CCNC(=O)c1c(C)[nH]c(/C=C2\C(=O)Nc3ccc(F)cc32)c1C [SUNITINIB]
[1]
  AC50: 7.3 µM
[3]
  AC50: 4.3 µM
[4]
  AC50: > 30 µM
[5]
  AC50: > 30 µM
[6]
  AC50: > 30 µM
Vasopressin V2 receptor
  AC50: 5.4 µM
[7]
  AC50: 8 µM
Motilin receptor
  AC50: 7.3 µM
[8]
  AC50: 5.2 µM
[9]
  AC50: > 10 µM
Melanocortin receptor 3
  AC50: 7.8 µM

## CO[C@H]1/C=C/O[C@@]2(C)Oc3c(C)c(O)c4c(O)c(c(/C=N/N5CCN(C)CC5)c(O)c4c3C2=O)NC(=O)/C(C)=C\C=C\[C@H](C)[C@H](O)[C@@H](C)[C@@H](O)[C@@H](C)[C@H](OC(C)=O)[C@@H]1C [RIFAMPIN]
[1]
  AC50: 22 µM
[2]
  AC50: 28 µM
[3]
  AC50: 19.4 µM
[4]
  AC50: > 30 µM
[5]
  AC50: > 30 µM
[6]
  AC50: > 30 µM
Vasopressin V2 receptor
  AC50: 30 µM
D(1A) dopamine receptor
  AC50: > 30 µM
[7]
  AC50: 29 µM
Motilin receptor
  AC50: > 30 µM
[8]
  AC50: > 30 µM
[9]
  AC50: > 10 µM
Melanocortin receptor 3
  AC50: > 30 µM

## CC(C(=O)O)c1ccc2c(c1)[nH]c1ccc(Cl)cc12 (centres undefined) [CARPROFEN]
[1]
  AC50: > 30 µM
[2]
  AC50: > 30 µM
[3]
  AC50: > 30 µM
[4]
  AC50: > 10 µM
[5]
  AC50: > 10 µM
[6]
  AC50: > 10 µM
Vasopressin V2 receptor
  AC50: > 30 µM
D(1A) dopamine receptor
  AC50: > 10 µM
[7]
  AC50: > 10 µM
Motilin receptor
  AC50: > 30 µM
[8]
  AC50: > 10 µM
[9]
  AC50: > 10 µM
Melanocortin receptor 3
  AC50: > 30 µM

## O=C1CN(/N=C/c2ccc(-c3ccc([N+](=O)[O-])cc3)o2)C(O)=N1 [DANTROLENE]
[1]
  AC50: > 10 µM
[2]
  AC50: > 10 µM
[3]
  AC50: > 10 µM
[4]
  AC50: > 10 µM
[5]
  AC50: > 10 µM
[6]
  AC50: > 10 µM
Vasopressin V2 receptor
  AC50: > 10 µM
D(1A) dopamine receptor
  AC50: > 10 µM
[7]
  AC50: > 10 µM
Motilin receptor
  AC50: > 10 µM
[8]
  AC50: > 10 µM
[9]
  AC50: > 10 µM
Melanocortin receptor 3
  AC50: > 10 µM

## C[C@]12C=CC(=O)N[C@@H]1CC[C@@H]1[C@@H]2CC[C@]2(C)[C@@H](C(=O)Nc3cc(C(F)(F)F)ccc3C(F)(F)F)CC[C@@H]12 [DUTASTERIDE]
[1]
  AC50: > 10 µM
[2]
  AC50: > 10 µM
[3]
  AC50: > 30 µM
[4]
  AC50: > 10 µM
[5]
  AC50: > 10 µM
[6]
  AC50: > 10 µM
Vasopressin V2 receptor
  AC50: > 10 µM
D(1A) dopamine receptor
  AC50: > 10 µM
[7]
  AC50: > 10 µM
Motilin receptor
  AC50: > 10 µM
[8]
  AC50: > 10 µM
[9]
  AC50: > 10 µM
Melanocortin receptor 3
  AC50: > 10 µM

## COc1ccccc1OCCNCC(O)COc1cccc2[nH]c3ccccc3c12 (centres undefined) [CARVEDILOL]
[1]
  AC50: > 30 µM
[3]
  AC50: 0.255 µM
[4]
  AC50: 0.04 µM
[5]
  AC50: > 30 µM
[6]
  AC50: > 10 µM
Vasopressin V2 receptor
  AC50: > 30 µM
D(1A) dopamine receptor
  AC50: > 10 µM
Motilin receptor
  AC50: 7.61 µM
[8]
  AC50: 0.532 µM
[9]
  AC50: > 10 µM
Melanocortin receptor 3
  AC50: 28.8 µM

## CN(C)CC[C@@H](c1ccc(Cl)cc1)c1ccccn1 [DEXCHLORPHENIRAMINE]
[1]
  AC50: > 30 µM
[2]
  AC50: > 30 µM
[3]
  AC50: > 30 µM
[4]
  AC50: > 30 µM
[5]
  AC50: > 30 µM
[6]
  AC50: > 30 µM
Vasopressin V2 receptor
  AC50: > 30 µM
D(1A) dopamine receptor
  AC50: > 30 µM
[7]
  AC50: > 30 µM
Motilin receptor
  AC50: > 30 µM
[8]
  AC50: > 30 µM
[9]
  AC50: 26 µM
Melanocortin receptor 3
  AC50: > 30 µM
